Results as given in US20240050428A1 (Cullgen (Shanghai), Inc., priority 2020, published 2024).
Read-outs that look alike come from different tables or passages of the source.

Assays:
[1] = test system: MV4;11 cells; experiment: Cell viability assay (CellTiter-Glo) in MV4;11 cells, alone or with gilteritinib; type: cell-based; conditions: Homo sapiens, MV4;11 cells, three days, CellTiter-Glo, read-out: MV4
[2] = test system: MOLM-13 cells; experiment: Cell viability assay (CellTiter-Glo) in MOLM-13 cells, alone or with gilteritinib; type: cell-based; conditions: Homo sapiens, MOLM-13 cells, three days, CellTiter-Glo
[3] = MV4-11, 72 h, compound alone (without gilteritinib), 11 IC50
[4] = MV4-11, 72 h, compound with gilteritinib 10 nM, 11 IC50 gilteritinib
[5] = MOLM-13, 72 h, compound alone (without gilteritinib), read-out: MOLM-13 IC50
[6] = MOLM-13, 72 h, compound with gilteritinib 20 nM, read-out: MOLM-13 IC50 gilteritinib

SMILES | IC50 [1, 3] | IC50 [1, 4] | IC50 [2, 5] | IC50 [2, 6] | IC50 ([1]; 72 h, compound alone (without gilteritinib), 11 IC50) | IC50 ([1]; 72 h, compound with gilteritinib 10 nM, 11 IC50 gilteritinib) | IC50 ([2]; 72 h, compound alone (without gilteritinib), read-out: MOLM-13 IC50) | IC50 ([2]; 72 h, compound with gilteritinib 20 nM, read-out: MOLM-13 IC50 gilteritinib)
CN1CCC(Nc2cccc(-c3cn([C@H]4C[C@H](CNc5ccc6c(c5)C(=O)N(C5CCC(=O)NC5=O)C6=O)C4)nc3C3CC3)n2)CC1 (stereo partly drawn) [GS-454, 5-(((trans-3-(3-cyclopropyl-4-(6-((1-methylpiperidin-4-yl)amino)pyridin-2-yl)-1H-pyrazol-1-yl)cyclobutyl)methyl)amino)-2-(2,6-dioxopiperidin-3-yl)isoindoline-1,3-dione] | – | – | – | – | > 1000 nM | 100 to 1000 nM | > 1000 nM | 100 to 1000 nM
O=C1CCC(N2C(=O)c3ccc(NC[C@H]4C[C@H](n5cc(-c6ccc(Cl)cc6)c(C6CC6)n5)C4)cc3C2=O)C(=O)N1 (stereo partly drawn) [GS-456, 5-(((trans-3-(4-(4-chlorophenyl)-3-cyclopropyl-1H-pyrazol-1-yl)cyclobutyl)methyl)amino)-2-(2,6-dioxopiperidin-3-yl)isoindoline-1,3-dione] | 100 to 1000 nM | 10 to 100 nM | > 1000 nM | 10 to 100 nM | – | – | – | –
O=C1CCC(N2C(=O)c3ccc(CNC4CC(n5cc(-c6cnc7ccccc7n6)c(C6CC6)n5)C4)cc3C2=O)C(=O)N1 (stereo not drawn) [GS-461, 5-(((3-(3-cyclopropyl-4-(quinoxalin-2-yl)-1H-pyrazol-1-yl)cyclobutyl)amino)methyl)-2-(2,6-dioxopiperidin-3-yl)isoindoline-1,3-dione] | > 1000 nM | > 1000 nM | > 1000 nM | > 1000 nM | – | – | – | –
COc1ccc(-c2cnn([C@H]3C[C@H](CCCNc4ccc5c(c4)C(=O)N(C4CCC(=O)NC4=O)C5=O)C3)c2)nc1 (stereo partly drawn) [GS-462, 2-(2,6-dioxopiperidin-3-yl)-5-((3-(trans-3-(4-(5-methoxypyridin-2-yl)-1H-pyrazol-1-yl)cyclobutyl)propyl)amino)isoindoline-1,3-dione] | 100 to 1000 nM | 10 to 100 nM | 100 to 1000 nM | 10 to 100 nM | – | – | – | –

The next lines start with results.

IC50 [1, 3] | IC50 [1, 4] | IC50 [2, 5] | IC50 [2, 6] | SMILES | IC50 ([1]; 72 h, compound alone (without gilteritinib), 11 IC50) | IC50 ([1]; 72 h, compound with gilteritinib 10 nM, 11 IC50 gilteritinib) | IC50 ([2]; 72 h, compound alone (without gilteritinib), read-out: MOLM-13 IC50) | IC50 ([2]; 72 h, compound with gilteritinib 20 nM, read-out: MOLM-13 IC50 gilteritinib)
> 1000 nM | > 1000 nM | > 1000 nM | > 1000 nM | O=C1CCC(N2C(=O)c3ccc(NC[C@H]4C[C@H](n5cc(N6CCNCC6)c(C6CC6)n5)C4)cc3C2=O)C(=O)N1 (stereo partly drawn) [GS-455, 5-(((trans-3-(3-cyclopropyl-4-(piperazin-1-yl)-1H-pyrazol-1-yl)cyclobutyl)methyl)amino)-2-(2,6-dioxopiperidin-3-yl)isoindoline-1,3-dione] | – | – | – | –
10 to 100 nM | 10 to 100 nM | 100 to 1000 nM | 10 to 100 nM | O=C1CCC(N2C(=O)c3ccc(NC[C@H]4C[C@H](n5cc(-c6cccc(Cl)c6)c(C6CC6)n5)C4)cc3C2=O)C(=O)N1 (stereo partly drawn) [GS-457, 5-(((trans-3-(4-(3-chlorophenyl)-3-cyclopropyl-1H-pyrazol-1-yl)cyclobutyl)methyl)amino)-2-(2,6-dioxopiperidin-3-yl)isoindoline-1,3-dione] | – | – | – | –
10 to 100 nM | < 10 nM | 10 to 100 nM | < 10 nM | O=C1CCC(N2C(=O)c3ccc(NC[C@H]4C[C@H](n5cc(-c6ccccc6Cl)c(C6CC6)n5)C4)cc3C2=O)C(=O)N1 (stereo partly drawn) [GS-458, 5-(((trans-3-(4-(2-chlorophenyl)-3-cyclopropyl-1H-pyrazol-1-yl)cyclobutyl)methyl)amino)-2-(2,6-dioxopiperidin-3-yl)isoindoline-1,3-dione] | – | – | – | –
> 1000 nM | > 1000 nM | > 1000 nM | > 1000 nM | CN1CCN(c2cn([C@H]3C[C@H](CNc4ccc5c(c4)C(=O)N(C4CCC(=O)NC4=O)C5=O)C3)nc2C2CC2)CC1 (stereo partly drawn) [GS-459, 5-(((trans-3-(3-cyclopropyl-4-(4-methylpiperazin-1-yl)-1H-pyrazol-1-yl)cyclobutyl)methyl)amino)-2-(2,6-dioxopiperidin-3-yl)isoindoline-1,3-dione] | – | – | – | –
> 1000 nM | > 1000 nM | > 1000 nM | > 1000 nM | CN1CCC(c2cn([C@H]3C[C@H](CNc4ccc5c(c4)C(=O)N(C4CCC(=O)NC4=O)C5=O)C3)nc2C2CC2)CC1 (stereo partly drawn) [GS-460, 5-(((trans-3-(3-cyclopropyl-4-(1-methylpiperidin-4-yl)-1H-pyrazol-1-yl)cyclobutyl)methyl)amino)-2-(2,6-dioxopiperidin-3-yl)isoindoline-1,3-dione] | – | – | – | –
